Measurements taken from patent publication US11572532B2, “Antimicrobial composition” (The Procter & Gamble Company, priority 2019, dated 2023).
Structures can show the parent of a compound that is named as a salt.

Experiments:
[1] = pH measurement on the neat composition; format: physicochemical; conditions: composition of 0.5% MEA + 1.5% TEA with 50 ppm of the active; 25° C.
Procedure: The pH is measured on the neat composition, at 25° C., using a pH meter with compatible gel-filled pH probe (such as Sartarius PT-10P meter with Toledo probe part number 52 000 100), calibrated according to the instruction manual.

Enterobacter aerogenes = assay: Minimum Biocidal Concentration (MBC) in suspension; format: cell-based; conditions: active in 0.5% MEA + 1.5% TEA alkaline composition, no horse serum, contact time 6 minutes; for MBC: Klebsiella aerogenes, 0.1 h, read-out: MBC (ppm) E. aerogenes
Procedure: (§1) B) Antibacterial Efficacy (Minimum Biocidal Concentration in Suspension):
(§2) The antimicrobial efficacy of the antimicrobial agent in the composition is determined by measuring its Minimum Biocidal Concentration (MBC). The MBC is defined as the lowest absolute concentration of the particular antimicrobial active which provides complete kill (zero bacterial growth).
(§3) The antimicrobial agent was added to the composition at a level of 1000 ppm, or 500 ppm, or 200 ppm, or 100 ppm or 50 ppm, depending on what the Minimum Biocidal Concentration (MBC) is. 200 μL of the antimicrobial hard surface cleaning composition was dosed into one well of row A of a 96 well microtiter plate. Each subsequent well (rows B to G) were dosed with 100 μL of the same hard surface cleaning composition, without the addition of the antimicrobial agent. 100 μL of the antimicrobial hard surface cleaning composition was transferred from row A to row B and mixed. 100 μL of the composition was then transferred from row B to row C and mixed, and the process repeated to row G. As such, the concentration of the antimicrobial agent underwent two-fold dilution in adjacent wells, while the concentration of the other actives in the hard surface cleaning composition remained constant across all the wells in the same column.
(§4) 10 μL of the 10^8CFU/ml bacteria suspension in saline was added to wells A to F of the microtiter plate with row G kept as a nil bacteria control. The final volume in each well was 110 μL, except for row G which comprised 100 μL of the hard surface cleaning composition and no bacteria suspension. Bacterial inoculation to each column was staggered by 30 seconds to allow for equal incubation times in all wells so that the contact time between the bacteria and the antimicrobial active for all samples was 6 mins. After this contact time, 10 μL of each test solution was transferred to 90 μL of neutralizer solution (Modified Letheen Broth +1.5% Polysorbate 80, supplied by BioMérieux) to stop the antimicrobial action of the antimicrobial active matching the stagger of the inoculation. 2 μL of this solution was plated onto a TSA plate matching the stagger of the inoculation so that all samples are exposed to the neutralizer for the same period of time. The plate was incubated at 32.5° C. for 48 h. MBC concentration is taken as the lowest concentration of the antimicrobial active at which no visible colony growth is observed on the TSA plate.

[2] = test system: Staphylococcus aureus (S.aureus—ATCC #6538); assay: Minimum Biocidal Concentration (MBC) in suspension; format: cell-based; conditions: active in 0.5% MEA + 1.5% TEA alkaline composition, no horse serum, contact time 6 minutes; for MBC: Staphylococcus aureus, ATCC6538, 0.1 h, read-out: MBC (ppm) S. aureus
Procedure: as §1, §2, §3, §4

**Q.** With [H]/N=C(\N/C(=N/[H])NCCCCCCNC(=N)NC(=N)Nc1ccc(Cl)cc1)Nc1ccc(Cl)cc1 [Chlorhexidine] as the molecule, how does the pH [1] read?
**A.** 11.2

**Q.** And the MBC (Enterobacter aerogenes)?
**A.** 50 µg/mL

**Q.** And the MBC [2]?
**A.** 50 µg/mL

**Q.** What does the source list for CCCCCCCCN=c1ccn(CCCCCCCCCCn2ccc(=NCCCCCCCC)cc2)cc1 [Bispyridinium alkane, octenidine dihydrochloride]?
**A.** pH [1]: 11.4; MBC (Enterobacter aerogenes): 12.5 µg/mL; MBC [2]: 3.13 µg/mL

**Q.** What does the source list for CCCCCCCCCCCCN(CCCN)CCCN [N-(3-Aminopropyl)-N-dodecylpropane-1,3-diamine]?
**A.** pH [1]: 11.5; MBC (Enterobacter aerogenes): 50 µg/mL; MBC [2]: 12.5 µg/mL

**Q.** Which pH [1] does the source give for “N-alkyl dimethyl benzyl ammonium chloride” here?
**A.** 11.4

**Q.** And the “MBC (ppm) E. aerogenes” value (Enterobacter aerogenes)?
**A.** 12.5 ppm

**Q.** And the “MBC (ppm) S. aureus” value [2]?
**A.** 12.5 ppm
